Among the data in patent US20260250290A1 (BRISTOL-MYERS SQUIBB COMPANY, priority 2023, published 2026) are IC50 values, retold here.

For the assay, the target named is T1, full length SGK1 (Homo sapiens, UniProt O00141).
T1 construct: 125 μM full length SGK1 (Life Technologies Part #PR7358A); purchased Life Technologies PR7358A
T1 sequence (O00141 1-431): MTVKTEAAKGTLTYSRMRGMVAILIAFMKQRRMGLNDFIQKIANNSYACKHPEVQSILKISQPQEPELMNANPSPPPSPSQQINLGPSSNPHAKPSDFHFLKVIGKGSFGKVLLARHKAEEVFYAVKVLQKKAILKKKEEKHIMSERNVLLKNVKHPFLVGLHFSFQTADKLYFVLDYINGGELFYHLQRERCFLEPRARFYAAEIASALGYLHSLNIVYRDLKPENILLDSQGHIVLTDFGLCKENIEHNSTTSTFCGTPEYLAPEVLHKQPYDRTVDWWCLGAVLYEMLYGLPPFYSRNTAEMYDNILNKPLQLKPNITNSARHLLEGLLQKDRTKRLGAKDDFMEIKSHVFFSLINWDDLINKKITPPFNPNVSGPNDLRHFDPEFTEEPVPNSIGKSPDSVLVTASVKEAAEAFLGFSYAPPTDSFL
The experiment in a line: SGK1 inhibition Assay A (Caliper LabChip electrophoretic separation of fluorescent peptide substrate and phosphorylated product). Type of assay: biochemical. The note with it: Assay A; 20 μM ATP, 40 min incubation; read-out: SGK1 IC50.

pIC50: −log10 of the molar value.

What is called pIC50 is −log10 of the IC50, conventionally taken in molar units. Regarding `COC(=O)N1CC=C(c2cc(N3CCC[C@@H](NC(=O)c4sc(C(F)F)cc4OCCN)C3)c3c(N)ncnn23)C1` [Example 324, methyl (R)-3-(4-amino-5-(3-(3-(2-aminoethoxy)-5-(difluoromethyl)thiophene-2-carboxamido)piperidin-1-yl)pyrrolo[2,1-f][1,2,4]triazin-7-yl)-2,5-dihydro-1H-pyrrole-1-carboxylate], the pIC50 is 8.40.

As to `NCCOc1cc(C(F)F)sc1C(=O)N[C@@H]1CCCN(c2cc(-c3cncnc3)n3ncnc(N)c23)C1` [Example 325, (R)-N-(1-(4-amino-7-(pyrimidin-5-yl)pyrrolo[2,1-f][1,2,4]triazin-5-yl)piperidin-3-yl)-3-(2-aminoethoxy)-5-(difluoromethyl)thiophene-2-carboxamide], the pIC50 was 7.82.

For `NCCOc1cc(C(F)F)sc1C(=O)N[C@@H]1CCCN(c2cc(-c3ccnc(C(F)F)c3)n3ncnc(N)c23)C1` [Example 326, (R)-N-(1-(4-amino-7-(2-(difluoromethyl)pyridin-4-yl)pyrrolo[2,1-f][1,2,4]triazin-5-yl)piperidin-3-yl)-3-(2-aminoethoxy)-5-(difluoromethyl)thiophene-2-carboxamide], the pIC50 was 8.40.

As for `NCCOc1cc(Cl)sc1C(=O)N[C@@H]1CCCN(c2cc(-c3cncnc3)n3ncnc(N)c23)C1` [Example 327, (R)—N-(1-(4-amino-7-(pyrimidin-5-yl)pyrrolo[2,1-f][1,2,4]triazin-5-yl)piperidin-3-yl)-3-(2-aminoethoxy)-5-chlorothiophene-2-carboxamide], the pIC50 was 8.05.

Consider `CC(=O)NCCOc1cc(Cl)sc1C(=O)N[C@@H]1CCCN(c2cc(C3=CCN(C(C)=O)C3)n3ncnc(N)c23)C1` [Example 328, (R)-3-(2-acetamidoethoxy)-N-(1-(7-(1-acetyl-2,5-dihydro-1H-pyrrol-3-yl)-4-aminopyrrolo[2,1-f][1,2,4]triazin-5-yl)piperidin-3-yl)-5-chlorothiophene-2-carboxamide], for which the pIC50 is 8.52. For `CC(=O)N1CC=C(c2cc(N3CCC[C@@H](NC(=O)c4sc(Cl)cc4OCCNC(=O)C(F)F)C3)c3c(N)ncnn23)C1` [Example 329, (R)—N-(1-(7-(1-acetyl-2,5-dihydro-1H-pyrrol-3-yl)-4-aminopyrrolo[2,1-f][1,2,4]triazin-5-yl)piperidin-3-yl)-5-chloro-3-(2-(2,2-difluoroacetamido)ethoxy)thiophene-2-carboxamide] the value was 8.52; for `CC(=O)N1CC=C(c2cc(N3CCC[C@@H](NC(=O)c4sc(Cl)cc4OC[C@H](C)N)C3)c3c(N)ncnn23)C1` [Example 330, N—((R)-1-(7-(1-acetyl-2,5-dihydro-1H-pyrrol-3-yl)-4-aminopyrrolo[2,1-f][1,2,4]triazin-5-yl)piperidin-3-yl)-3-((S)-2-aminopropoxy)-5-chlorothiophene-2-carboxamide], 8.52. For `CC(=O)N1CC=C(c2cc(N3CCC[C@@H](NC(=O)c4sc(Cl)cc4OCC4(N)CC4)C3)c3c(N)ncnn23)C1` [Example 331, (R)—N-(1-(7-(1-acetyl-2,5-dihydro-1H-pyrrol-3-yl)-4-aminopyrrolo[2,1-f][1,2,4]triazin-5-yl)piperidin-3-yl)-3-((1-aminocyclopropyl)methoxy)-5-chlorothiophene-2-carboxamide] the value was 7.68; for `CC(=O)N(C)CCOc1cc(Cl)sc1C(=O)N[C@@H]1CCCN(c2cc(C3=CCN(C(C)=O)C3)n3ncnc(N)c23)C1` [Example 332, (R)—N-(1-(7-(1-acetyl-2,5-dihydro-1H-pyrrol-3-yl)-4-aminopyrrolo[2,1-f][1,2,4]triazin-5-yl)piperidin-3-yl)-5-chloro-3-(2-(N-methylacetamido)ethoxy)thiophene-2-carboxamide], 7.74; for `CNCCOc1cc(Cl)sc1C(=O)N[C@@H]1CCCN(c2cc(C3=CCN(C(C)=O)C3)n3ncnc(N)c23)C1` [Example 332D, (R)—N-(1-(7-(1-acetyl-2,5-dihydro-1H-pyrrol-3-yl)-4-aminopyrrolo[2,1-f][1,2,4]triazin-5-yl)piperidin-3-yl)-5-chloro-3-(2-(methylamino)ethoxy)thiophene-2-carboxamide], 8.00. In the case of `COC(=O)N(C)CCOc1cc(Cl)sc1C(=O)N[C@@H]1CCCN(c2cc(C3=CCN(C(C)=O)C3)n3ncnc(N)c23)C1` [Example 333], the pIC50 is 9.00.

On to `COC(=O)N1CC=C(c2cc(N3CCC[C@@H](NC(=O)c4sc(C(F)F)cc4OCCN4CCN(C)CC4)C3)c3c(N)ncnn23)C1` [Example 334, Methyl (R)-3-(4-amino-5-(3-(5-(difluoromethyl)-3-(2-(4-methylpiperazin-1-yl)ethoxy)thiophene-2-carboxamido)piperidin-1-yl)pyrrolo[2,1-f][1,2,4]triazin-7-yl)-2,5-dihydro-1H-pyrrole-1-carboxylate], for which the pIC50 is 8.05. Under `CN1CCN(CCOc2cc(C(F)F)sc2C(=O)N[C@@H]2CCCN(c3cc(-c4ccnc(C(F)F)c4)n4ncnc(N)c34)C2)CC1` [Example 335, (R)—N-(1-(4-amino-7-(2-(difluoromethyl)pyridin-4-yl)pyrrolo[2,1-f][1,2,4]triazin-5-yl)piperidin-3-yl)-5-(difluoromethyl)-3-(2-(4-methylpiperazin-1-yl)ethoxy)thiophene-2-carboxamide] stands 8.40; under `COC(=O)N1CC=C(c2cc(N3CCC[C@@H](NC(=O)c4sc(C(F)F)cc4OCCN4CCOCC4)C3)c3c(N)ncnn23)C1` [Example 336, methyl (R)-3-(4-amino-5-(3-(5-(difluoromethyl)-3-(2-morpholinoethoxy)thiophene-2-carboxamido)piperidin-1-yl)pyrrolo[2,1-f][1,2,4]triazin-7-yl)-2,5-dihydro-1H-pyrrole-1-carboxylate], 7.55. As to `Nc1ncnn2c(-c3ccnc(C(F)F)c3)cc(N3CCC[C@@H](NC(=O)c4sc(C(F)F)cc4OCCN4CCOCC4)C3)c12` [Example 337, (R)—N-(1-(4-amino-7-(2-(difluoromethyl)pyridin-4-yl)pyrrolo[2,1-f][1,2,4]triazin-5-yl)piperidin-3-yl)-5-(difluoromethyl)-3-(2-morpholinoethoxy)thiophene-2-carboxamide], the pIC50 was 7.85. With `CN(C)C(=O)COc1cc(Cl)sc1C(=O)N[C@@H]1CCCN(c2cc(-c3ccnc(C(F)F)c3)n3ncnc(N)c23)C1` [Example 339, (R)—N-(1-(4-amino-7-(2-(difluoromethyl)pyridin-4-yl)pyrrolo[2,1-f][1,2,4]triazin-5-yl)piperidin-3-yl)-5-chloro-3-(2-(dimethylamino)-2-oxoethoxy)thiophene-2-carboxamide], the pIC50 is 8.05. Under `CN(C)CCOc1cc(Cl)sc1C(=O)N[C@@H]1CCCN(c2cc(-c3ccnc(C(F)F)c3)n3ncnc(N)c23)C1` [Example 340, (R)—N-(1-(4-amino-7-(2-(difluoromethyl)pyridin-4-yl)pyrrolo[2,1-f][1,2,4]triazin-5-yl)piperidin-3-yl)-5-chloro-3-(2-(dimethylamino)ethoxy)thiophene-2-carboxamide] stands 8.52; under `Nc1ncnn2c(-c3ccnc(C(F)F)c3)cc(N3CCC[C@@H](NC(=O)c4sc(Cl)cc4OCCN4CCOCC4)C3)c12` [Example 341, (R)—N-(1-(4-amino-7-(2-(difluoromethyl)pyridin-4-yl)pyrrolo[2,1-f][1,2,4]triazin-5-yl)piperidin-3-yl)-5-chloro-3-(2-morpholinoethoxy)thiophene-2-carboxamide], 8.70.

In the case of `CN1CCN(CCOc2cc(Cl)sc2C(=O)N[C@@H]2CCCN(c3cc(-c4ccnc(C(F)F)c4)n4ncnc(N)c34)C2)CC1` [Example 342, (R)—N-(1-(4-amino-7-(2-(difluoromethyl)pyridin-4-yl)pyrrolo[2,1-f][1,2,4]triazin-5-yl)piperidin-3-yl)-5-chloro-3-(2-(4-methylpiperazin-1-yl)ethoxy)thiophene-2-carboxamide], the pIC50 was 8.40.

As to `CN(C)CCOc1cc(C(F)F)sc1C(=O)N[C@@H]1CCCN(c2cc(-c3ccnc(C(F)F)c3)n3ncnc(N)c23)C1` [Example 343, (R)—N-(1-(4-amino-7-(2-(difluoromethyl)pyridin-4-yl)pyrrolo[2,1-f][1,2,4]triazin-5-yl)piperidin-3-yl)-5-(difluoromethyl)-3-(2-(dimethylamino)ethoxy)thiophene-2-carboxamide], the pIC50 is 8.30. For `Nc1ncnn2c(-c3ccnc(C(F)F)c3)cc(N3CCC[C@@H](NC(=O)c4sc(C(F)F)cc4N4CCOCC4)C3)c12` [Example 344, (R)—N-(1-(4-amino-7-(2-(difluoromethyl)pyridin-4-yl)pyrrolo[2,1-f][1,2,4]triazin-5-yl)piperidin-3-yl)-5-(difluoromethyl)-3-morpholinothiophene-2-carboxamide], the pIC50 is 8.15. With `Nc1ncnn2c(-c3ccnc(C(F)F)c3)cc(N3CCC[C@@H](NC(=O)c4sc(C(F)F)cc4N4CC5(COC5)C4)C3)c12` [Example 345, (R)—N-(1-(4-amino-7-(2-(difluoromethyl)pyridin-4-yl)pyrrolo[2,1-f][1,2,4]triazin-5-yl)piperidin-3-yl)-5-(difluoromethyl)-3-(2-oxa-6-azaspiro[3.3]heptan-6-yl)thiophene-2-carboxamide], the pIC50 was 7.72.
